O=C(O)c1cccc(C(=O)O)n1
Conditions	solubility (mole fraction)
in 1,4-dioxane, 293.15 K	0.00197
in 1,4-dioxane, 298.15 K	0.00219
in 1,4-dioxane, 303.15 K	0.0025
in 1,4-dioxane, 308.15 K	0.00291
in 1,4-dioxane, 313.15 K	0.00336
in 1,4-dioxane, 318.15 K	0.00393
in 1,4-dioxane, 323.15 K	0.00481
in 1,4-dioxane, 328.15 K	0.00567
in 1,4-dioxane, 333.15 K	0.00671
in THF, 278.15 K	0.00256
in THF, 283.15 K	0.00275
in THF, 288.15 K	0.00302
in THF, 293.15 K	0.00338
in THF, 298.15 K	0.00381
in THF, 303.15 K	0.00421
in THF, 308.15 K	0.00462
in THF, 313.15 K	0.00494
in THF, 318.15 K	0.00549
in acetic acid, 293.15 K	0.000799
in acetic acid, 298.15 K	0.000876
in acetic acid, 303.15 K	0.000991
in acetic acid, 308.15 K	0.00116
in acetic acid, 313.15 K	0.00131
in acetic acid, 318.15 K	0.00156
in acetic acid, 323.15 K	0.00177
in acetic acid, 328.15 K	0.00197
in acetic acid, 333.15 K	0.00227
in acetonitrile, 278.15 K	0.000183
in acetonitrile, 283.15 K	0.000225
in acetonitrile, 288.15 K	0.000258
in acetonitrile, 293.15 K	0.000306
in acetonitrile, 298.15 K	0.000379
in acetonitrile, 303.15 K	0.000453
in acetonitrile, 308.15 K	0.000548
in acetonitrile, 313.15 K	0.000653
in acetonitrile, 318.15 K	0.000779
in ethanol, 278.15 K	0.00378
in ethanol, 288.15 K	0.00492
in ethanol, 293.15 K	0.00579
in ethanol, 298.15 K	0.00702
in ethanol, 303.15 K	0.00846
in ethanol, 308.15 K	0.00974
in ethanol, 313.15 K	0.0114
in ethanol, 318.15 K	0.0142
in ethyl acetate, 278.15 K	0.000247
in ethyl acetate, 283.15 K	0.000353
in ethyl acetate, 288.15 K	0.000602
in ethyl acetate, 293.15 K	0.000897
in ethyl acetate, 298.15 K	0.00131
in ethyl acetate, 303.15 K	0.00215
in ethyl acetate, 308.15 K	0.00329
in ethyl acetate, 313.15 K	0.00477
in ethyl acetate, 318.15 K	0.00742
in formic acid, 278.15 K	0.00285
in formic acid, 283.15 K	0.00305
in formic acid, 288.15 K	0.00326
in formic acid, 293.15 K	0.00361
in formic acid, 298.15 K	0.00408
in formic acid, 303.15 K	0.00456
in formic acid, 308.15 K	0.00507
in formic acid, 313.15 K	0.00596
in formic acid, 318.15 K	0.00694
in isopropanol, 278.15 K	0.0038
in isopropanol, 283.15 K	0.00417
in isopropanol, 288.15 K	0.00485
in isopropanol, 293.15 K	0.00555
in isopropanol, 298.15 K	0.00638
in isopropanol, 303.15 K	0.00735
in isopropanol, 308.15 K	0.00896
in isopropanol, 313.15 K	0.0106
in isopropanol, 318.15 K	0.0125
in methanol, 278.15 K	0.00449
in methanol, 283.15 K	0.0048
in methanol, 288.15 K	0.00547
in methanol, 293.15 K	0.00676
in methanol, 298.15 K	0.00874
in methanol, 303.15 K	0.0118
in methanol, 308.15 K	0.0155
in methanol, 313.15 K	0.0209
in methanol, 318.15 K	0.026
in n-propanol, 278.15 K	0.00311
in n-propanol, 283.15 K	0.00361
in n-propanol, 288.15 K	0.00433
in n-propanol, 293.15 K	0.00512
in n-propanol, 298.15 K	0.00632
in n-propanol, 303.15 K	0.00761
in n-propanol, 308.15 K	0.00892
in n-propanol, 313.15 K	0.0107
in n-propanol, 318.15 K	0.0135
in toluene, 278.15 K	0.000365
in toluene, 283.15 K	0.000582
in toluene, 288.15 K	0.000848
in toluene, 293.15 K	0.00119
in toluene, 298.15 K	0.00175
in toluene, 303.15 K	0.00253
in toluene, 308.15 K	0.00356
in toluene, 313.15 K	0.00487
in toluene, 318.15 K	0.00589

— BigSolDB 2.1
